According to patent US20210121482A1, “WITHANOLIDES FOR THE TREATMENT OF CACHEXIA” (University of Louisville Research Foundation, Inc., priority 2019, published 2021):

Assays:
A2780 cells = assay: Free peritoneal tumor weight (Example 1); format: in vivo, mice; details: 2 and 6 mg/kg, vs vehicle treated group
Description: Free peritoneal tumors (visible tumors) not associated with an organ were collected and weighed to assess WFA effects. […] At the time of euthanization and tissue collection, tumors associated with the intestines were found most frequently in the vehicle treated group and were of the largest size.

[1] = system: TA muscle myofibers (MyHC I, IIa, IIb); assay: Skeletal muscle fiber-type immunostaining; format: in vivo, mice
Protocol: Skeletal Muscle Fiber-type Immunostaining: To determine the composition of different types and gross composition of skeletal muscle fibers, 10 μm thick transverse sections were made from TA muscles, a hydrophobic boundary was drawn around the section, and then blocked with 5% goat serum and 2% bovine serum albumin (BSA) in PBS for 30 minutes. The sections were then incubated for one hour with monoclonal antibodies against myosin heavy chain (MyHC) isoforms type I, IIa, and IIb using clone BA-D5, […], and BF-F3, respectively (Developmental Studies Hybridoma Bank, Iowa City, Iowa, USA). The following secondary antibodies were then used for detection after 1-2 hours of incubation period: anti-Mouse IgG2b (γ2b) CF™ 350 antibody produced in goat, anti-Mouse IgG1 (yl) CF™ 568 antibody produced in goat, and Alexa Fluor-488 goat anti-mouse IgM. Fluorescence images were captured with a Nikon TiE 3000 inverted microscope, the single-color channels were merged, and percentage of each fiber-type in whole muscle section was recorded. Nonspecific background staining was performed using the above protocol but omitting the inclusion of the primary antibodies. Antibodies BA-D5, SC-71, and BF-F3 were deposited to the DSHB by Schiaffino, S. (DSHB Hybridoma Product BA-D5, SC-71, and BF-F3).

Q: What does the source list for CC1=C(CO)C(=O)O[C@@H]([C@@H](C)[C@H]2CC[C@H]3[C@@H]4C[C@H]5O[C@]56[C@@H](O)C=CC(=O)[C@]6(C)[C@H]4CC[C@]23C)C1 [WFA, (4β,5β,6β,22R)-4,27-Dihydroxy-5,6:22,26-diepoxyergosta-2,24-diene-1,26-dione]?
A: weight of free peritoneal tumors (A2780 cells): significantly reduced the size of peritoneal tumors; tumors associated with the intestines (A2780 cells; at tissue collection): fewer and smaller tumors; proportion of Type IIb myofibers in TA muscle ([1]; 2 and 6 mg/kg, vs control and vehicle treated groups): significantly reduced in the WFA treated groups in a dose-dependent manner; percentage of Type IIa myofibers in TA muscle ([1]; 2 and 6 mg/kg, vs vehicle treated and control groups): significant increase in Type IIa myofibers; percentage of Type I myofibers in TA muscle ([1]; all groups): no significant differences were found; percentage of Type IIx myofibers in TA muscle ([1]; all groups): no significant differences were elucidated upon post hoc analysis
